Patent publication US5731285A, “Tachiquinine antagonist tricyclic compounds, preparation of same and pharmaceutical compositions containing such compounds” (A. Menatini Industrie Farmaceutiche, priority 1992, dated 1998)
Positions of bridges follow the written chain, without caps; N, C: chain ends. Non-standard residues stand in square brackets, D forms with d. Residues, ends and D or L forms follow the SMILES beside them. Dap = NC[C@H](N)C(=O)O

Molecular target: T1, neurokinin A receptor (receptor NK-2) (Oryctolagus cuniculus, UniProt P79218)
T1 construct: The said preparation consisted of isolated rabbit pulmonary artery; from tissue; host or cells: isolated rabbit pulmonary artery
T1 sequence (P79218 1-384): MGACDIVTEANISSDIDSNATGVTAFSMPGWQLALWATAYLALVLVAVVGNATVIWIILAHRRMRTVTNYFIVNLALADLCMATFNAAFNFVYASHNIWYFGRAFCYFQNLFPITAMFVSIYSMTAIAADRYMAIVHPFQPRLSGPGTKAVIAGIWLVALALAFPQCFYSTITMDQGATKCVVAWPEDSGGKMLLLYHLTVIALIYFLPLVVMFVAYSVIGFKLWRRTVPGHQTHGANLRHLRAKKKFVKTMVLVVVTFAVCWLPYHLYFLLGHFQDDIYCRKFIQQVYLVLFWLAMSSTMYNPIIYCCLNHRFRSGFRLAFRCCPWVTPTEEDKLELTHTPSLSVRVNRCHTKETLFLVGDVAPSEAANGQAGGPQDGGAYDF
Assay: inhibition of NKA-induced contraction in isolated rabbit pulmonary artery
Type: cell-based
Details: compound, NKA 3 nM
Protocol: The capacity of the products described in the present invention to interact with the neurokinin A receptor as agonists or antagonists was assessed using a preparation characterized by the fact that the biological response produced by tachykinins and correlated peptides was exclusively determined by the neurokinin A receptor (receptor NK-2). The said preparation consisted of isolated rabbit pulmonary artery affected by a dose-dependentcontraction brought about by tachykinins (Rovero et al., Neuropeptides, 13, 263-270, 1989). The determination of the peptide activity in the test preparation was based on the use of an NKA concentration (3 nM) causing a response equal to 45% of max. response. The peptides considered herein were added to the preparation in growing concentrations. Their activity was assessed as inhibition of response to NKA.

## CSCC[C@@H]1NC(=O)[C@H](CC(C)C)NC(=O)[C@@H]2CNC(=O)C[C@H](NC1=O)C(=O)N[C@@H](Cc1c[nH]c3ccccc13)C(=O)N[C@@H](Cc1ccccc1)C(=O)N2 [Compound 1] (cyclo(DWF[Dap]LM); lactam 1-4)
  inhibition of response to neurokinins A: 100%
